Measured values as given in patent publication US4780238A (priority 1985, dated 1988).

Test system: P. aeruginosa
Format: cell-based, Pseudomonas aeruginosa

SMILES | lag period of the organism | inhibitory effect on growth
O=[N+]([O-])[O-].O=[N+]([O-])[O-].O=[N+]([O-])[O-].O=[N+]([O-])[O-].[Th+4] [Th(NO3)4, thorium nitrate] | the lag period of the organism also increased | –
O=[N+]([O-])[O-].O=[N+]([O-])[O-].[O]=[U+2]=[O] [uranyl nitrate] | – | stronger inhibitory effect on growth of the organism than thorium
